# pIC50: −log10 of the molar value.
# Columns and labels:
# [1] = test system: GM1 production in Jurkat cells; test: cells; type: cell-based; details: Homo sapiens, Jurkat, 72 h
# [2] = molecular target: glucosylceramide synthase (GCS) (Homo sapiens (Human), UniProt Q16739); test: Evaluation of inhibitory activities against GCS (A549 cell lysate, NBD C6-ceramide, HPLC); type: biochemical
# Procedure: The inhibitory activities of the compounds of the present invention against GCS were evaluated, as follows, according to the method described in the known literature (Hayashi Y et al., A sensitive and reproducible assay to measure the activity of glucosylceramide synthase and lactosylceramide synthase using HPLC and fluorescent substrates, Analytical Biochemistry 345 (2005) 181-186). Ibiglustat, known as a GCS inhibitor, was used as a control.
# After the cells attached to the culture dish were washed with phosphate buffered saline (PBS), the cells were scraped off with a cell scraper and then centrifuged (4000 rpm, 3 min, 4 °C) to collect the cells in a 50 ml tube. The cell pellets were suspended in a lysis buffer (50 mM HEPES, pH 7.3, containing 1× the protease/phosphatase inhibitor cocktail), lysed by sonication, and then the lysate was centrifuged (13000 rpm, 10 min, 4° C.). The obtained supernatant was used for the quantitative analysis of proteins. The amount of proteins was measured using the BCA protein assay kit, using bovine serum albumin as a standard.
# Enzymatic reactions were initiated by sequentially adding the following reaction materials to a 96 deep-well plate. Thereafter, the enzymatic reactions were performed at 37° C. for 90 minutes.
# The enzymatic reactions were stopped by adding 100 μl of chloroform/methanol (2:1, v/v). […] The lower layer (50 μl) was transferred to a new 96 deep-well plate and dried with a reduced concentrator.
# Lipids were dissolved in 100 μl of isopropyl alcohol/n-hexane/H2O (55:44:1, v/v/v) and then transferred to a glass vial for HPLC (Agilent, 8004-HP-H/i3u). The sample (100 μl) was automatically loaded onto a normal-phase column (Intersil SIL 150A-5, 4.6×250 mm, GL Sciences, Japan) and then eluted at a flow rate of 2.0 ml/min with isopropyl alcohol/n-hexane/H2O (55:44:1, v/v/v). The fluorescence thereof was measured with a fluorescence detector (Agilent, 1260 FLD Spectra), using 470 nm and 530 nm as excitation and emission wavelengths, respectively.
# Data analysis was performed by the following equations.
# % Area (Sample)=Area (GlcCer)/[Area (Cer)+Area (GlcCer)]×100%
# GCS activity=[Area (Sample)−Area (ibiglustat)]/[Area (DMSO)−Area (ibiglustat)]×100
# The obtained % GCS activity data was analyzed with the software GraphPad Prism (Ver 5.01) to calculate the IC50 values.
# glucosylceramide synthase (GCS), sequence (Q16739 whole entry): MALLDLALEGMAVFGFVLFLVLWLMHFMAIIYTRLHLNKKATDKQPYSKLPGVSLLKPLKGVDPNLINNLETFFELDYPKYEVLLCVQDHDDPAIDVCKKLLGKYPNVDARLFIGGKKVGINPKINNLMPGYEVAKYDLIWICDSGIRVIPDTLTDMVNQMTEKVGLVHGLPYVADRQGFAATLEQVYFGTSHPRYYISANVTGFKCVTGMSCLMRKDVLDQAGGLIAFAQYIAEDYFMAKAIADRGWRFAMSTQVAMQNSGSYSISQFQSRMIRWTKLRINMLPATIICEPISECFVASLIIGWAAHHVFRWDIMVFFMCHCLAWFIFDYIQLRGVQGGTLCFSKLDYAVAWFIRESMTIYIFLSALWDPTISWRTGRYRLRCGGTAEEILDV
SMILES,pIC50 [1],pIC50 [2]
"COc1cccc(-c2cc3c(cc2F)[C@H](NC(=O)O[C@@H]2CN4CCC2CC4)C(C)(C)CC3)c1 [Example 184, (S)-quinuclidin-3-yl((R)-7-fluoro-6-(3-methoxyphenyl)-2,2-dimethyl-1,2,3,4-tetrahydronaphthalen-1-yl)carbamate]",8.64,9.52
"CCCCOc1c(C)cc(-c2cc3c(cc2F)[C@H](NC(=O)O[C@@H]2CN4CCC2CC4)C(C)(C)CC3)cc1C [Example 183, (S)-quinuclidin-3-yl((R)-6-(4-butoxy-3,5-dimethylphenyl)-7-fluoro-2,2-dimethyl-1,2,3,4-tetrahydronaphthalen-1-yl)carbamate]",8.12,8.80
"CC(C)Cc1ccc(-c2ccc3c(c2)CCC(C)(C)[C@H]3NC(=O)O[C@@H]2CN3CCC2CC3)cc1 [Example 160, (S)-quinuclidin-3-yl((R)-6-(4-isobutylphenyl)-2,2-dimethyl-1,2,3,4-tetrahydronaphthalen-1-yl)carbamate]",8.52,8.30
"CC(C)Oc1cc(F)cc(-c2cc3c(cc2F)[C@H](NC(=O)O[C@@H]2CN4CCC2CC4)C(C)(C)C3)c1 [Example 108, (S)-quinuclidin-3-yl((R)-6-fluoro-5-(3-fluoro-5-isopropoxyphenyl)-2,2-dimethyl-2,3-dihydro-1H-inden-1-yl)carbamate]",7.50,8.97
"CCCCOc1cccc(-c2ccc3c(c2)CCC(C)(C)[C@H]3NC(=O)O[C@@H]2CN3CCC2CC3)c1 [Example 155, (S)-quinuclidin-3-yl((R)-6-(3-butoxyphenyl)-2,2-dimethyl-1,2,3,4-tetrahydronaphthalen-1-yl)carbamate]",9.15,9.41
"CCc1ccc(-c2ccc3c(c2)CC(C)(C)[C@H]3NC(=O)O[C@@H]2CN3CCC2CC3)cc1F [Example 33, (S)-quinuclidin-3-yl((R)-5-(4-ethyl-3-fluorophenyl)-2,2-dimethyl-2,3-dihydro-1H-inden-1-yl)carbamate]",8.14,9.01
"COc1ccc(-c2cc3c(cc2F)[C@H](NC(=O)O[C@@H]2CN4CCC2CC4)C(C)(C)C3)cc1Cl [Example 85, (S)-quinuclidin-3-yl((R)-5-(3-chloro-4-methoxyphenyl)-6-fluoro-2,2-dimethyl-2,3-dihydro-1H-inden-1-yl)carbamate]",7.18,9.09
"CCc1cccc(-c2cc3c(cc2F)[C@H](NC(=O)O[C@@H]2CN4CCC2CC4)C(C)(C)CC3)c1 [Example 187, (S)-quinuclidin-3-yl((R)-6-(3-ethylphenyl)-7-fluoro-2,2-dimethyl-1,2,3,4-tetrahydronaphthalen-1-yl)carbamate]",8.89,9.29
"CCOc1c(C)cc(-c2ccc3c(c2)CCC(C)(C)[C@H]3NC(=O)O[C@@H]2CN3CCC2CC3)cc1C [Example 164, (S)-quinuclidin-3-yl((R)-6-(4-ethoxy-3,5-dimethylphenyl)-2,2-dimethyl-1,2,3,4-tetrahydronaphthalen-1-yl)carbamate]",8.08,8.86
"CCCCOc1ccc(-c2cc3c(cc2C)[C@H](NC(=O)O[C@@H]2CN4CCC2CC4)C(C)(C)C3)cc1 [Example 123, (S)-quinuclidin-3-yl((R)-5-(4-butoxyphenyl)-2,2,6-trimethyl-2,3-dihydro-1H-inden-1-yl)carbamate]",8.90,9.62
"CC1(C)Cc2cc(-c3ccc(OCC(F)(F)F)cc3Cl)ccc2[C@@H]1NC(=O)O[C@@H]1CN2CCC1CC2 [Example 55, (S)-quinuclidin-3-yl((R)-5-(2-chloro-4-(2,2,2-trifluoroethoxy)phenyl)-2,2-dimethyl-2,3-dihydro-1H-inden-1-yl)carbamate]",8.66,9.20
"CCCCOc1ccc(-c2ccc3c(c2)CCC(C)(C)[C@H]3NC(=O)O[C@@H]2CN3CCC2CC3)cc1 [Example 145, (S)-quinuclidin-3-yl((R)-6-(4-butoxyphenyl)-2,2-dimethyl-1,2,3,4-tetrahydronaphthalen-1-yl)carbamate]",9.52,9.54
"CCOc1cc2c(cc1-c1ccc(CC)cc1)CC(C)(C)[C@H]2NC(=O)O[C@@H]1CN2CCC1CC2 [Example 127, (S)-quinuclidin-3-yl((R)-6-ethoxy-5-(4-ethylphenyl)-2,2-dimethyl-2,3-dihydro-1H-inden-1-yl)carbamate]",8.10,8.74
"CCCCOc1cccc(-c2cc3c(cc2F)[C@H](NC(=O)O[C@@H]2CN4CCC2CC4)C(C)(C)CC3)c1 [Example 186, (S)-quinuclidin-3-yl((R)-6-(3-butoxyphenyl)-7-fluoro-2,2-dimethyl-1,2,3,4-tetrahydronaphthalen-1-yl)carbamate]",9.15,9.34
"CC(C)(C)Oc1ccc(-c2cc3c(cc2F)[C@H](NC(=O)O[C@@H]2CN4CCC2CC4)C(C)(C)C3)c(Cl)c1 [Example 102, (S)-quinuclidin-3-yl((R)-5-(4-(tert-butoxy)-2-chlorophenyl)-6-fluoro-2,2-dimethyl-2,3-dihydro-1H-inden-1-yl)carbamate]",8.80,9.72
"CCCCc1ccc(-c2cc3c(cc2OCC)[C@H](NC(=O)O[C@@H]2CN4CCC2CC4)C(C)(C)C3)cc1 [Example 130, (S)-quinuclidin-3-yl((R)-5-(4-butylphenyl)-6-ethoxy-2,2-dimethyl-2,3-dihydro-1H-inden-1-yl)carbamate]",8.82,9.12
"CC(C)COc1cccc(-c2ccc3c(c2)CCC(C)(C)[C@H]3NC(=O)O[C@@H]2CN3CCC2CC3)c1 [Example 163, (S)-quinuclidin-3-yl((R)-6-(3-isobutoxyphenyl)-2,2-dimethyl-1,2,3,4-tetrahydronaphthalen-1-yl)carbamate]",8.89,8.09
"CC(C)Oc1c(F)cc(-c2ccc3c(c2)CC(C)(C)[C@H]3NC(=O)O[C@@H]2CN3CCC2CC3)cc1F [Example 37, (S)-quinuclidin-3-yl((R)-5-(3,5-difluoro-4-isopropoxyphenyl)-2,2-dimethyl-2,3-dihydro-1H-inden-1-yl)carbamate]",8.66,8.71
"Cc1cc(-c2ccc3c(c2)CC(C)(C)[C@H]3NC(=O)O[C@@H]2CN3CCC2CC3)ccc1OC(F)F [Example 48, (S)-quinuclidin-3-yl((R)-5-(4-(difluoromethoxy)-3-methylphenyl)-2,2-dimethyl-2,3-dihydro-1H-inden-1-yl)carbamate]",7.86,8.89
"CCOc1ccc(-c2cc3c(cc2F)[C@H](NC(=O)O[C@@H]2CN4CCC2CC4)C(C)(C)C3)cc1C [Example 105, (S)-quinuclidin-3-yl((R)-5-(4-ethoxy-3-methylphenyl)-6-fluoro-2,2-dimethyl-2,3-dihydro-1H-inden-1-yl)carbamate]",8.09,9.14
"CC(C)Oc1c(F)cc(-c2cc3c(cc2F)[C@H](NC(=O)O[C@@H]2CN4CCC2CC4)C(C)(C)C3)cc1F [Example 97, (S)-quinuclidin-3-yl((R)-5-(3,5-difluoro-4-isopropoxyphenyl)-6-fluoro-2,2-dimethyl-2,3-dihydro-1H-inden-1-yl)carbamate]",7.89,8.97
"CCOc1ccc(-c2cc3c(cc2OCC)[C@H](NC(=O)O[C@@H]2CN4CCC2CC4)C(C)(C)C3)cc1 [Example 132, (S)-quinuclidin-3-yl((R)-6-ethoxy-5-(4-ethoxyphenyl)-2,2-dimethyl-2,3-dihydro-1H-inden-1-yl)carbamate]",8.12,8.80
"CCOc1c(C)cc(-c2cc3c(cc2F)[C@H](NC(=O)O[C@@H]2CN4CCC2CC4)C(C)(C)CC3)cc1C [Example 195, (S)-quinuclidin-3-yl((R)-6-(4-ethoxy-3,5-dimethylphenyl)-7-fluoro-2,2-dimethyl-1,2,3,4-tetrahydronaphthalen-1-yl)carbamate]",8.08,8.89
"CCOc1cc2c(cc1-c1ccc(OC(C)C)c(Cl)c1)CC(C)(C)[C@H]2NC(=O)O[C@@H]1CN2CCC1CC2 [Example 137, (S)-quinuclidin-3-yl((R)-5-(3-chloro-4-isopropoxyphenyl)-6-ethoxy-2,2-dimethyl-2,3-dihydro-1H-inden-1-yl)carbamate]",7.89,8.52
"CCCCOc1ccc(-c2cc3c(cc2F)[C@H](NC(=O)O[C@@H]2CN4CCC2CC4)C(C)(C)CC3)cc1 [Example 178, (S)-quinuclidin-3-yl((R)-6-(4-butoxyphenyl)-7-fluoro-2,2-dimethyl-1,2,3,4-tetrahydronaphthalen-1-yl)carbamate]",9.40,9.66

# From US20240262819A1, “NOVEL COMPOUNDS HAVING INHIBITORY ACTIVITY AGAINST GLUCOSYLCERAMIDE SYNTHASE OR PHARMACEUTICALLY ACCEPTABLE SALT THEREOF, PROCESSES FOR PREPARING THE SAME, AND PHARMACEUTICAL COMPOSITIONS COMPRISING THE SAME” (YUHAN CORPORATION, priority 2021, published 2024)
